Consider one compound from patent US7989165B2, “Tape stripping methods for analysis of skin disease and pathological skin state” (DermTech International, priority 2004, dated 2011).

Each structure is given as a SMILES string. Values joined by “and” are separate entries in the source; they are usually repeats but may differ in a detail not shown here. Equal entries are not always repeated.

What all share (type): in vivo, human
One assay deals with GAPDH mRNA. In words: Semi-quantitative RT-PCR of GAPDH mRNA relative to β-actin in SLS-occluded skin (tape and biopsy). The following applies: 1% SLS 24 h occluded skin, mean ± SD per subject, last line average, sulfate. The source says:
Clinical protocols: The study protocols were reviewed and approved by an independent IRB (BioMed IRB, San Diego) and all subjects signed informed consent. Ten healthy women, ages 21-55 were enrolled in the study. Regions of unblemished, normal appearing skin on the mid back were chosen for the application of 2 occlusive patches in the form of bandages approximately 4 cm×6.5 cm. The bandages were made using a clear, non-porous plastic hypoallergenic adhesive tape. In the center of this tape was a Webril (non-woven cotton) patch measuring approximately 2 cm×4.5 cm. One Webril patch contained 0.6 ml of 1% aqueous sodium lauryl sulfate and the other contained 0.6 ml of sterile water as the vehicle control. […] The sites were scored by a trained technician using the scale provided below. […] In a second study, 3 subjects had 3 patches containing 1% SLS and 3 water patches applied to the mid back for 24 hours: Patches were removed, scored and tape stripped as above. […]
Quantitative RT-PCR: 10 μl of RNA was reverse transcribed (RT) into cDNA with the Sensiscript Reverse Transcriptase kit and random hexamers in a final volume of […] according to the manufacturer's directions. […]
Amplification and detection of specific mRNA: Specific mRNAs were converted to cDNA as described above. Specific cDNAs were semi-quantified using gene specific primer/probes (5′-nuclease assay) and fluorescence detection.

The subject of a further assay is Krt-10 mRNA. In words: RT-PCR of keratin-10 mRNA relative to β-actin in SLS-irritated and control skin (tape and biopsy). The following applies: for ΔCt,Krt-10, Biopsy, SLS / ΔCt,Krt-10, Tape, SLS: 1% SLS occlusive patch 24 hours, mid-back, relative to β-actin, per subject 1-10 and Average; for ΔCt,Krt-10, Biopsy, SLS / Fold Increase Krt-10/β-actin mRNA vs. normal, Biopsy, SLS: biopsy RNA; for ΔCt,Krt-10, Biopsy, SLS / ΔCt,Krt-10, Tape, SLS / Fold Increase Krt-10/β-actin mRNA vs. normal, Biopsy, SLS / Fold Increase Krt-10/β-actin mRNA vs. normal, Tape, SLS: sulfate; for ΔCt,Krt-10, Tape, SLS / Fold Increase Krt-10/β-actin mRNA vs. normal, Tape, SLS: tape-stripped RNA; for Fold Increase Krt-10/β-actin mRNA vs. normal, Biopsy, SLS / Fold Increase Krt-10/β-actin mRNA vs. normal, Tape, SLS: 1% SLS patch 24 hours vs untreated skin, per subject and Average. Also noted: key to ΔCt,Krt-10, Tape, SLS / ΔCt,Krt-10, Biopsy, SLS: ΔCt: keratin mRNA Ct normalized to β-actin Ct in same sample. The source says: (§1) The samples analyzed in this study are those described in the protocol performed by Wong et al. (Wong, Tran et al. 2004). […] Patches were removed and equivalent skin sites were biopsied and tape stripped as described in the Examples above. As an additional control, normal skin was also biopsied and tape stripped. Samples were processed for total RNA and assayed for keratin-10, keratin-16, keratin-17 and β-actin mRNA. The keratin mRNAs were normalized to β-actin mRNA in each sample. The semi-quantitative RT-PCR assay has been previously described (Wong, Tran et al. 2004).

A further assay concerns Krt-17 mRNA. Nature of the assay: RT-PCR of keratin-17 mRNA relative to β-actin in SLS-irritated and control skin (tape and biopsy). On the set-up: key to ΔCt,Krt-17, Tape, SLS / ΔCt,Krt-17, Biopsy, SLS: ΔCt: keratin mRNA Ct normalized to β-actin Ct in same sample. The following applies: sulfate; for ΔCt,Krt-17, Biopsy, SLS / ΔCt,Krt-17, Tape, SLS: 1% SLS occlusive patch 24 hours, mid-back, relative to β-actin, per subject 1-10 and Average; for ΔCt,Krt-17, Biopsy, SLS / Fold Increase Krt-17/βactin mRNA ratio vs. normal, Biopsy, SLS: biopsy RNA; for ΔCt,Krt-17, Tape, SLS: tape-stripped RNA; for Fold Increase Krt-17/βactin mRNA ratio vs. normal, Biopsy, SLS: 1% SLS patch 24 hours vs untreated skin, per subject and Average.
Excerpt: as §1

Take `CCCCCCCCCCCCOS(=O)(=O)[O-].[Na+]` [SLS, sodium lauryl sulfate]: the “ΔCt,GAPDH (Ct,GAPDH − Ct,actin), Biopsy” value in the assay on GAPDH mRNA (shave biopsy RNA) was 1.44 ± 0.11 and 1.68 ± 0.09 and 1.78 ± 0.10 and 2.33 ± 0.07 and 1.73 ± 0.09 and 1.54 ± 0.10 and 3.25 ± 0.08 and 1.05 ± 0.07 and 1.61 ± 0.11 and 1.95 ± 0.08. For the same compound, the “ΔCt,GAPDH (Ct,GAPDH − Ct,actin), Tape” value in the assay on GAPDH mRNA (tape-harvested RNA) was 3.02 ± 0.08 and 2.28 ± 0.10 and 3.15 ± 0.15 and 2.87 ± 0.10 and 2.68 ± 0.09 and 3 ± 0.11 and 2.85 ± 0.15 and 2.46 ± 0.08 and 2.78 ± 0.44 and 2.56 ± 0.11. In the assay with Krt-10 mRNA, the “ΔCt,Krt-10, Biopsy, SLS” value was −4.28 and −0.24 and −3.09 and −6.35 and −4 and 0.4 and −2 and −2.7 and 1.91 and −5.97; the “ΔCt,Krt-10, Tape, SLS” value is −2.76 and 3.68 and 8.19 and −0.3 and 0.93 and 5.1 and 1.03 and 4.17 and 3.81 and −0.81; the “Fold Increase Krt-10/β-actin mRNA vs. normal, Biopsy, SLS” value was 0.15 fold and 0.01 fold (2×) and 0.06 fold (2×) and 0.65 fold and 0.1 fold and 0.03 fold and <0.001 fold and 0.57 fold; the “Fold Increase Krt-10/β-actin mRNA vs. normal, Tape, SLS” value was 1.55 fold and 0.03 fold and <0.001 fold and 0.01 fold (3×) and 0.31 fold and 1.22 fold. In the assay with Krt-10 mRNA (mean), the “ΔCt,Krt-10, Biopsy, SLS” value is listed as −2.63; the “ΔCt,Krt-10, Tape, SLS” value turned out to be 2.30; the “Fold Increase Krt-10/β-actin mRNA vs. normal, Biopsy, SLS” value is 0.05 fold; the “Fold Increase Krt-10/β-actin mRNA vs. normal, Tape, SLS” value was found to be 0.06 fold. Besides, the “average decrease in K10 expression” value in the assay with Krt-10 mRNA (SLS treatment vs untreated skin, tape and biopsy virtually identical) is listed as about 20 fold. Besides, in the assay with Krt-17 mRNA, the “ΔCt,Krt-17, Biopsy, SLS” value is 0.71 and −2.29 and −2.5 and 1.13 and −1.97 and −1.63 and −2.91 and −1.75 and −1.86 and −0.11; the “ΔCt,Krt-17, Tape, SLS” value is −5.12 and 1.64 and 1.5 and −4.87 and −1.79 and 1.11 and −1.84 and 1.38 and 0.21 and −2.12; the “Fold Increase Krt-17/βactin mRNA ratio vs. normal, Biopsy, SLS” value was 13.31 fold and 94.54 fold and 44.95 fold and 4.51 fold and 27.19 fold and 15.44 fold and 459.45 fold and 195.94 fold and 48.35 fold and 41.13 fold. Further, in the assay with Krt-17 mRNA (mean), the “ΔCt,Krt-17, Biopsy, SLS” value was −1.32; the “ΔCt,Krt-17, Tape, SLS” value was −0.99; the “Fold Increase Krt-17/βactin mRNA ratio vs. normal, Biopsy, SLS” value is on record as 42.52 fold.
